Laboratory results as given in the supplement of paper PMC10307832.

Tests used:
Experiment in all cases: relative viability (nuclei count vs DMSO), 5 days (fraction); higher = more cells survive
Everolimus + Pictilisib = compound: CO[C@H]1C[C@@H]2CC[C@@H](C)[C@@](O)(O2)C(=O)C(=O)N2CCCC[C@H]2C(=O)O[C@H]([C@H](C)C[C@@H]2CC[C@@H](OCCO)[C@H](OC)C2)CC(=O)[C@H](C)/C=C(\C)[C@@H](O)[C@@H](OC)C(=O)[C@H](C)C[C@H](C)/C=C/C=C/C=C/1C [Everolimus] + CS(=O)(=O)N1CCN(Cc2cc3nc(-c4cccc5[nH]ncc45)nc(N4CCOCC4)c3s2)CC1 [Pictilisib] (partner 1 µM)
Method in brief: (§1)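 The day after seeding in 1536-well plates, lung cancer cell lines were treated by pin tool with a single drug, or with a fixed anchor-drug dose together with five library-drug doses (not always all listed) in √10 steps. After 5 days, a combined fix-and-stain solution (final 0.05% Triton X-100, 1% formaldehyde, 1 ug/ml Hoechst) was added. Nuclei counted on 4× images gave relative viability as treated counts over vehicle counts, reported as the median of duplicate plates.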

Everolimus + Linsitinib = compound: CO[C@H]1C[C@@H]2CC[C@@H](C)[C@@](O)(O2)C(=O)C(=O)N2CCCC[C@H]2C(=O)O[C@H]([C@H](C)C[C@@H]2CC[C@@H](OCCO)[C@H](OC)C2)CC(=O)[C@H](C)/C=C(\C)[C@@H](O)[C@@H](OC)C(=O)[C@H](C)C[C@H](C)/C=C/C=C/C=C/1C [Everolimus] + C[C@]1(O)C[C@@H](c2nc(-c3ccc4ccc(-c5ccccc5)nc4c3)c3c(N)nccn32)C1 [Linsitinib] (partner 1 µM)
Method in brief: as §1

Everolimus + Alpelisib = compound: CO[C@H]1C[C@@H]2CC[C@@H](C)[C@@](O)(O2)C(=O)C(=O)N2CCCC[C@H]2C(=O)O[C@H]([C@H](C)C[C@@H]2CC[C@@H](OCCO)[C@H](OC)C2)CC(=O)[C@H](C)/C=C(\C)[C@@H](O)[C@@H](OC)C(=O)[C@H](C)C[C@H](C)/C=C/C=C/C=C/1C [Everolimus] + Cc1nc(NC(=O)N2CCC[C@H]2C(N)=O)sc1-c1ccnc(C(C)(C)C(F)(F)F)c1 [Alpelisib] (partner 2 µM)
Method in brief: as §1

Everolimus + Decitabine = compound: CO[C@H]1C[C@@H]2CC[C@@H](C)[C@@](O)(O2)C(=O)C(=O)N2CCCC[C@H]2C(=O)O[C@H]([C@H](C)C[C@@H]2CC[C@@H](OCCO)[C@H](OC)C2)CC(=O)[C@H](C)/C=C(\C)[C@@H](O)[C@@H](OC)C(=O)[C@H](C)C[C@H](C)/C=C/C=C/C=C/1C [Everolimus] + Nc1ncn([C@H]2C[C@H](O)[C@@H](CO)O2)c(=O)n1 [Decitabine] (partner 2 µM)
Method in brief: as §1

Cell Line	relative viability (Everolimus + Pictilisib; first compound 0.01 µM)	relative viability (Everolimus + Pictilisib; first compound 0.03162 µM)	relative viability (Everolimus + Pictilisib; first compound 0.1 µM)	relative viability (Everolimus + Pictilisib; first compound 0.3162 µM)	relative viability (Everolimus + Pictilisib; first compound 1 µM)	relative viability (Everolimus + Linsitinib; first compound 0.01 µM)	relative viability (Everolimus + Linsitinib; first compound 0.03162 µM)	relative viability (Everolimus + Linsitinib; first compound 0.1 µM)	relative viability (Everolimus + Linsitinib; first compound 0.3162 µM)	relative viability (Everolimus + Linsitinib; first compound 1 µM)	relative viability (Everolimus + Alpelisib; first compound 0.01 µM)	relative viability (Everolimus + Alpelisib; first compound 0.03162 µM)	relative viability (Everolimus + Alpelisib; first compound 0.1 µM)	relative viability (Everolimus + Alpelisib; first compound 0.3162 µM)	relative viability (Everolimus + Alpelisib; first compound 1 µM)	relative viability (Everolimus + Decitabine; first compound 0.01 µM)	relative viability (Everolimus + Decitabine; first compound 0.03162 µM)	relative viability (Everolimus + Decitabine; first compound 0.1 µM)	relative viability (Everolimus + Decitabine; first compound 0.3162 µM)	relative viability (Everolimus + Decitabine; first compound 1 µM)
NCI-H1793	0.225	0.222	0.141	0.237	0.19	0.299	0.188	0.333	0.311	0.246	0.314	0.225	0.298	0.23	0.267	0.283	0.262	0.339	0.344	0.263
HCC-827	0.957	0.875	0.781	0.863	0.611	1.01	0.977	0.979	1	0.838	0.925	0.736	0.656	0.682	0.637	0.282	0.234	0.303	0.319	0.287
HCC-78	0.193	0.19	0.201	0.185	0.16	0.482	0.319	0.272	0.28	0.293	0.244	0.244	0.213	0.234	0.228	0.593	0.605	0.636	0.643	0.603
NCI-H2085	0.346	0.358	0.368	0.348	0.377	0.735	0.522	0.519	0.509	0.484	0.668	0.616	0.577	0.622	0.571	0.508	0.536	0.483	0.478	0.395
PC-14	0.411	0.191	0.239	0.21	0.342	0.937	1	0.945	0.82	0.724	0.796	0.661	0.62	0.589	0.476	0.276	0.26	0.235	0.296	0.293
NCI-H1648																0.484	0.423	0.383	0.405	0.399
A-427	0.488	0.524	0.445	0.491	0.542	0.854	0.772	0.823	0.675	0.834	0.795	0.709	0.754	0.675	0.787	0.436	0.509	0.45	0.486	0.561
NCI-H2228	0.28	0.206	0.209	0.289	0.243	0.272	0.351	0.552	0.249	0.364	0.463	0.431	0.418	0.385	0.266					
ChaGo-K-1	0.653	0.382	0.634	0.494	0.666											0.5	0.478	0.461	0.419	0.458
NCI-H1650	0.47	0.473	0.477	0.515	0.469											0.472	0.389	0.556	0.406	0.573
IA-LM	0.211	0.162	0.137	0.158	0.104	0.296	0.306	0.243	0.267	0.282	0.185	0.334	0.27	0.149	0.288					
EBC-1	0.199	0.193	0.221	0.227	0.222	0.263	0.218	0.306	0.205	0.298	0.278	0.348	0.284	0.33	0.279					
NCI-H1299	0.54	0.537	0.512	0.386	0.528	0.855	1	0.544	0.848	0.819	1.04	1.09	1.01	1.06	1.06					
Calu-6	0.573	0.566	0.559	0.527	0.592	0.647	0.707	0.663	0.762	0.778	0.65	0.604	0.593	0.608	0.614					
NCI-H522																0.594	0.677	0.517	0.684	0.537
NCI-H1703	0.208	0.24	0.306	0.228	0.25	0.293	0.281	0.447	0.488	0.463	0.213	0.22	0.29	0.239	0.338					
CAL-12T	0.324	0.26	0.377	0.287	0.304	0.452	0.56	0.447	0.616	0.562	0.378	0.464	0.266	0.351	0.46					
NCI-H1563	0.664	0.672	0.632	0.676	0.646	0.993	0.757	0.766	0.683	0.734	0.715	0.717	0.662	0.641	0.685					
NCI-H2170	0.229	0.234	0.159	0.214	0.198						0.365	0.367	0.333	0.312	0.354	0.287	0.274	0.257	0.28	0.262
